According to patent US8822503B2, “2-pyridone compounds” (Taisho Pharmaceutical Co., Ltd, priority 2009, dated 2014):

target: T1, human liver GK (Homo sapiens, UniProt P35557); test: GK activation test; type: biochemical; details: test compound concentration needed to activate 50% of maximum activation ability; 4 mM 14C-labeled glucose, 2 mM ATP, room temperature, 20 minutes
T1 construct: GST (glutathione S-transferase) (N); made in house; host or cells: E. coli
T1 sequence (P35557 1-466 isoform P35557-2): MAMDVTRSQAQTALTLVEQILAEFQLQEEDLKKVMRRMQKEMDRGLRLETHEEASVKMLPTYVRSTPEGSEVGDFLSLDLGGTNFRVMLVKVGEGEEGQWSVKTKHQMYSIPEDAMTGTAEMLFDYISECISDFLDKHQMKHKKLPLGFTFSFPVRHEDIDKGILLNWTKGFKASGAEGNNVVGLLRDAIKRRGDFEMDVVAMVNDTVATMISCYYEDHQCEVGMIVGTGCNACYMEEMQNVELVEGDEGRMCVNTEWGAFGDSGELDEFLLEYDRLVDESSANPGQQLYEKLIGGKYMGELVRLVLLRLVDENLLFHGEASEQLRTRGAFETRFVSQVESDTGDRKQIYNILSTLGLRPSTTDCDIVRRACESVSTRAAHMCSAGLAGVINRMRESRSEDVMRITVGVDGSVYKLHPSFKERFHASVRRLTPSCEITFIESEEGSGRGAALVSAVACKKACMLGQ
In short: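 GST-tagged human liver GK from E. coli (0.24 μg/well) with 4 mM 14C-glucose, 2 mM ATP in Hepes-KOH pH 7.1, KCl, MgCl2, DTT, 1% DMSO, 20 min room temperature. Labeled glucose 6-phosphate captured on anion resin, eluted and counted. EC50 = concentration giving half of maximal activation.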

Row | Compound | EC50
1 | CS(=O)(=O)c1cc(/C(=C\[C@H]2CCC(=O)N2)c2ccc(Cl)c(=O)[nH]2)ccc1C(F)F [Example 4-157, 3-Chloro-6-{(E)-1-[4-(difluoromethyl)-3-(methylsulfonyl)phenyl]-2-[(2R)-5-oxopyrrolidin-2-yl]ethenyl}pyridin-2(1H)-one] | 3000 to 10000 nM
2 | C[S+]([O-])c1ccc(/C(=C\[C@H]2CCC(=O)N2)c2ccc(Cl)c(=O)[nH]2)cc1 (stereo partly drawn) [Example 4-158, 3-Chloro-6-{(E)-1-[4-(methylsulfinyl)phenyl]-2-[(2R)-5-oxopyrrolidin-2-yl]ethenyl}pyridin-2(1H)-one] | 3000 to 10000 nM
3 | CNC(=O)c1ccc(/C(=C\[C@H]2CCC(=O)N2)c2ccc(Cl)c(=O)[nH]2)cc1 [Example 4-159, 4-{(E)-1-(5-Chloro-6-oxo-1,6-dihydropyridin-2-yl)-2-[(2R)-5-oxopyrrolidin-2-yl]ethenyl}-N-methylbenzamide] | 3000 to 10000 nM
4 | NC(=O)c1ccc(/C(=C\[C@H]2CCC(=O)N2)c2ccc(Cl)c(=O)[nH]2)cc1 [Example 4-160, 4-{(E)-1-(5-Chloro-6-oxo-1,6-dihydropyridin-2-yl)-2-[(2R)-5-oxopyrrolidin-2-yl]ethenyl}benzamide] | 3000 to 10000 nM
5 | CN(C)C(=O)c1ccc(/C(=C\[C@H]2CCC(=O)N2)c2ccc(Cl)c(=O)[nH]2)cc1 [Example 4-161, 4-{(E)-1-(5-Chloro-6-oxo-1,6-dihydropyridin-2-yl)-2-[(2R)-5-oxopyrrolidin-2-yl]ethenyl}-N,N-dimethylbenzamide] | 3000 to 10000 nM
6 | CC(=O)Nc1cccc(/C(=C\[C@H]2CCC(=O)N2)c2ccc(Cl)c(=O)[nH]2)c1 [Example 4-163, N-(3-{(E)-1-(5-Chloro-6-oxo-1,6-dihydropyridin-2-yl)-2-[(2R)-5-oxopyrrolidin-2-yl]ethenyl}phenyl)acetamide] | 3000 to 10000 nM
7 | CCCOc1ccc(/C(=C/[C@H]2CCC(=O)N2)c2ccc(C(C)(C)C)cc2)[nH]c1=O [Example 4-167, 6-{(E)-1-(4-tert-Butylphenyl)-2-[(2R)-5-oxopyrrolidin-2-yl]ethenyl}-3-propoxypyridin-2(1H)-one] | 500 to 3000 nM
8 | O=C1CC[C@H](/C=C(\c2ccc(C(F)(F)F)cc2)c2ccc(OC3CCCC3)c(=O)[nH]2)N1 [Example 4-168, 3-(Cyclopentyloxy)-6-{(E)-2-[(2R)-5-oxopyrrolidin-2-yl]-1-[4-(trifluoromethyl)phenyl]ethenyl}pyridin-2(1H)-one] | 500 to 3000 nM
9 | O=C1CC[C@H](/C=C(\c2ccc(Cl)cc2)c2ccc(OCCCO)c(=O)[nH]2)N1 [Example 4-169, 6-{(E)-1-(4-Chlorophenyl)-2-[(2R)-5-oxopyrrolidin-2-yl]ethenyl}-3-(3-hydroxypropoxy)pyridin-2(1H)-one] | 3000 to 10000 nM
10 | O=C1CC[C@H](/C=C(\c2ccc(C(F)(F)F)cc2)c2ccc(OCCCO)c(=O)[nH]2)N1 [Example 4-170, 3-(3-Hydroxypropoxy)-6-{(E)-2-[(2R)-5-oxopyrrolidin-2-yl]-1-[4-(trifluoromethyl)phenyl]ethenyl}pyridin-2(1H)-one] | 3000 to 10000 nM
11 | CC(C)(CO)COc1ccc(/C(=C/[C@H]2CCC(=O)N2)c2ccc(C(F)(F)F)cc2)[nH]c1=O [Example 4-171, 3-(3-Hydroxy-2,2-dimethylpropoxy)-6-{(E)-2-[(2R)-5-oxopyrrolidin-2-yl]-1-[4-(trifluoromethyl)phenyl]ethenyl}pyridin-2(1H)-one] | 3000 to 10000 nM
12 | O=C1CC[C@H](/C=C(\c2ccc(C(F)(F)F)cn2)c2ccc(C3CC3)c(=O)[nH]2)N1 [Example 4-172, 3-Cyclopropyl-6-{(Z)-2-[(2R)-5-oxopyrrolidin-2-yl]-1-[5-(trifluoromethyl)pyridin-2-yl]ethenyl}pyridin-2(1H)-one] | 500 to 3000 nM
13 | CC(C)(C)c1ccc(/C(=C\[C@H]2CCC(=O)N2)c2ccc(N)c(=O)[nH]2)cc1 [Example 4-173, 3-Amino-6-{(E)-1-(4-tert-butylphenyl)-2-[(2R)-5-oxopyrrolidin-2-yl]ethenyl}pyridin-2(1H)-one] | 500 to 3000 nM
14 | CC(=O)c1ccc(/C(=C/[C@H]2CCC(=O)N2)c2ccc(C(C)(C)C)cc2)[nH]c1=O [Example 4-175, 3-Acetyl-6-{(E)-1-(4-tert-butylphenyl)-2-[(2R)-5-oxopyrrolidin-2-yl]ethenyl}pyridin-2(1H)-one] | 500 to 3000 nM
15 | Cc1nc(C)c(-c2ccc(/C(=C/[C@H]3CCC(=O)N3)c3ccc(C(C)(C)C)cc3)[nH]c2=O)s1 [Example 4-181, 6-{(E)-1-(4-tert-Butylphenyl)-2-[(2R)-5-oxopyrrolidin-2-yl]ethenyl}-3-(2,4-dimethyl-1,3-thiazol-5-yl)pyridin-2(1H)-one] | 500 to 3000 nM
16 | CC(C)Cn1cc(-c2ccc(/C(=C/[C@H]3CCC(=O)N3)c3ccc(C(C)(C)C)cc3)[nH]c2=O)cn1 [Example 4-182, 6-{(E)-1-(4-tert-Butylphenyl)-2-[(2R)-5-oxopyrrolidin-2-yl]ethenyl}-3-[1-(2-methylpropyl)-1H-pyrazol-4-yl]pyridin-2(1H)-one] | 500 to 3000 nM
17 | CC(C)(C)c1ccc(/C(=C\[C@H]2CCC(=O)N2)c2cccc(=O)[nH]2)cc1 [Example 4-186, 6-{(E)-1-(4-tert-Butylphenyl)-2-[(2R)-5-oxopyrrolidin-2-yl]ethenyl}pyridin-2(1H)-one] | 500 to 3000 nM
18 | Cc1ccc(Oc2ccc(/C(=C/[C@H]3CCC(=O)N3)c3ccc(C(C)(C)C)cc3)[nH]c2=O)cc1 [Example 4-187, 6-{(E)-1-(4-tert-Butylphenyl)-2-[(2R)-5-oxopyrrolidin-2-yl]ethenyl}-3-(4-methylphenoxy)pyridin-2(1H)-one] | 500 to 3000 nM

Other lines, results leading:

Row | EC50 | Compound
19 | 10 to 500 nM | CC(C)(C)c1ccc(/C(=C\[C@H]2CCC(=O)N2)c2ccc(Cl)c(=O)[nH]2)c(O)c1 [Example 4-162, 6-{(E)-1-(4-tert-Butyl-2-hydroxyphenyl)-2-[(2R)-5-oxopyrrolidin-2-yl]ethenyl}-3-chloropyridin-2(1H)-one]
20 | 10 to 500 nM | CC(C)(C)c1ccc(/C(=C\[C@H]2CCC(=O)N2)c2ccc(OC(F)F)c(=O)[nH]2)cc1 [Example 4-165, 6-{(E)-1-(4-tert-Butylphenyl)-2-[(2R)-5-oxopyrrolidin-2-yl]ethenyl}-3-(difluoromethoxy)pyridin-2(1H)-one]
21 | 500 to 3000 nM | CC(C)Oc1ccc(/C(=C/[C@H]2CCC(=O)N2)c2ccc(C(C)(C)C)cc2)[nH]c1=O [Example 4-166, 6-{(E)-1-(4-tert-Butylphenyl)-2-[(2R)-5-oxopyrrolidin-2-yl]ethenyl}-3-(propan-2-yloxy)pyridin-2(1H)-one]
22 | 10 to 500 nM | CN(C)c1ccc(/C(=C/[C@H]2CCC(=O)N2)c2ccc(C(C)(C)C)cc2)[nH]c1=O [Example 4-174, 6-{(E)-1-(4-tert-Butylphenyl)-2-[(2R)-5-oxopyrrolidin-2-yl]ethenyl}-3-(dimethylamino)pyridin-2(1H)-one]
23 | 10 to 500 nM | CCc1ccc(/C(=C/[C@H]2CCC(=O)N2)c2ccc(C(C)(C)C)cc2)[nH]c1=O [Example 4-176, 6-{(E)-1-(4-tert-Butylphenyl)-2-[(2R)-5-oxopyrrolidin-2-yl]ethenyl}-3-ethylpyridin-2(1H)-one]
24 | 10 to 500 nM | CC(C)(C)c1ccc(/C(=C\[C@H]2CCC(=O)N2)c2ccc(Br)c(=O)[nH]2)cc1 [Example 4-177, 3-Bromo-6-{(E)-1-(4-tert-butylphenyl)-2-[(2R)-5-oxopyrrolidin-2-yl]ethenyl}pyridin-2(1H)-one]
25 | 10 to 500 nM | CC(C)(C)c1ccc(/C(=C\[C@H]2CCC(=O)N2)c2ccc(-c3ccccc3)c(=O)[nH]2)cc1 [Example 4-178, 6-{(E)-1-(4-tert-Butylphenyl)-2-[(2R)-5-oxopyrrolidin-2-yl]ethenyl}-3-phenylpyridin-2(1H)-one]
26 | 10 to 500 nM | CC(C)(C)c1ccc(/C(=C\[C@H]2CCC(=O)N2)c2ccc(-c3ccncc3)c(=O)[nH]2)cc1 [Example 4-179, 6-{(E)-1-(4-tert-Butylphenyl)-2-[(2R)-5-oxopyrrolidin-2-yl]ethenyl}-3,4′-bipyridin-2(1H)-one]
27 | 10 to 500 nM | CC(C)(C)c1ccc(/C(=C\[C@H]2CCC(=O)N2)c2ccc(-c3cccnc3)c(=O)[nH]2)cc1 [Example 4-180, 6-{(E)-1-(4-tert-Butylphenyl)-2-[(2R)-5-oxopyrrolidin-2-yl]ethenyl}-3,3′-bipyridin-2(1H)-one]
28 | 10 to 500 nM | Cn1cc(-c2ccc(/C(=C/[C@H]3CCC(=O)N3)c3ccc(C(C)(C)C)cc3)[nH]c2=O)cn1 [Example 4-183, 6-{(E)-1-(4-tert-Butylphenyl)-2-[(2R)-5-oxopyrrolidin-2-yl]ethenyl}-3-(1-methyl-1H-pyrazol-4-yl)pyridin-2(1H)-one]
29 | 10 to 500 nM | CC(C)(C)c1ccc(/C(=C\[C@H]2CCC(=O)N2)c2ccc(-c3cnoc3)c(=O)[nH]2)cc1 [Example 4-184, 6-{(E)-1-(4-tert-Butylphenyl)-2-[(2R)-5-oxopyrrolidin-2-yl]ethenyl}-3-(1,2-oxazol-4-yl)pyridin-2(1H)-one]
30 | 10 to 500 nM | CC(C)(C)c1ccc(/C(=C\[C@H]2CCC(=O)N2)c2ccc(Oc3ccccc3)c(=O)[nH]2)cc1 [Example 4-185, 6-{(E)-1-(4-tert-Butylphenyl)-2-[(2R)-5-oxopyrrolidin-2-yl]ethenyl}-3-phenoxypyridin-2(1H)-one]
